# Laboratory results from patent US9486493B2, “Use of a peptide and an analgesic pharmaceutical agent” (priority 2007, dated 2016).
# Where no end group is shown, it is not given here.
# Key:
# [1] = tested on: pain reaction in mice with inflammation; test: Animal pain model of tumour metastasis (human ovarian cancer cells into a rear limb), tail dipping in 55° C water; format: in vivo; conditions: for dose necessitated for a similar analgesic effect: control group lacking the inflammation; for analgesic activity (pain reaction): mice with inflammation, after two weeks
# Description: (§1) In an animal pain model of tumour metastasis, inflammation was induced though the injection of a million human ovarian cancer cells into a rear limb. After two days, we observed a progressing inflammation induced by tumour take. The analgesic activity of biphaline was observed after two weeks, during acute pain caused by tail dipping in water at a temperature of 55° C. […] In the control group, which lacked the inflammation, a similar analgesic effect necessitated the use of a dose of 1 mg/kg.
# as §1, with “(Tyr-Ser-Gly-Phe-NH—)2” for “biphaline”, “4” for “1”
# [2] = tested on: acute pain in rat with inflammation; test: Animal rheumatoid inflammation model (Mycobacterium butyricum into the tarsal joint), thermal stimulation of the tail; format: in vivo; conditions: for antinociceptive effects: control group; for analgesic effect on acute pain: rat with inflammation, 0.5 mg/kg, after two weeks
# Description: In an animal rheumatoid inflammation model, an anaesthetised rat was injected with homogenates of thermically inactivated Mycobacterium butyricum suspended in sunflower oil at a volume ratio of 1:1 into the tarsal joint. After two weeks inflammation was observed. The analgesic effect on acute pain was observed using thermal stimulation of the tail.
# [3] = directly into the subarachnoid space (intrathecal), rats; cited from earlier work
# [4] = tested on: pain reaction in mice with inflammation; test: Freund's adjuvant limb inflammation in mice, acute pain by tail dipping in 55° C water; format: in vivo
# Description: Inflammation was induced in mice through the administration of Freund's adjuvant into a limb. After two days, a progressing inflammation was observed. The analgesic activity of biphalin was observed following a week, during acute pain caused by tail dipping in water at a temperature of 55° C.
# [5] = intravenous administration; cited from earlier work
# [6] = humans; cited from earlier work
compound,measurement,setting,value
"(Tyr-Ser-Gly-Phe-NH—)2 (YSGF; also: dimer linked via C-terminal NH hydrazide bridge) [opioid peptide, analogue of biphalin]",dose necessitated for a similar analgesic effect,[1],4 mg/kg
same,analgesic activity (pain reaction),[1]; 50 μg/kg intraperitoneal,complete disappearance of the pain reaction
(Tyr-D-Thr-Gly-Trp-NH—)2,antinociceptive effects,[2]; after administration of 4 mg/kg,no antinociceptive effects were observed
same,analgesic effect on acute pain,[2],completely blocked pain effects
C[C@@H](NC(=O)[C@@H](N)Cc1ccc(O)cc1)C(=O)NCC(=O)N[C@@H](Cc1ccccc1)C(=O)NNC(=O)[C@H](Cc1ccccc1)NC(=O)CNC(=O)[C@@H](C)NC(=O)[C@@H](N)Cc1ccc(O)cc1 [biphalin],activity relative to morphine administered the same way,[3],~1000 fold
same,analgesic activity (pain reaction),"[4]; control group lacking the inflammation, same dose 50 μg/kg intravenous",no effect was observed
same,analgesic activity (pain reaction),"[4]; mice with inflammation, 50 μg/kg intravenous, one week after Freund's adjuvant",complete disappearance of the pain reaction
same,antinociceptive effects,[2]; same amount (0.5 mg/kg),no antinociceptive effects were observed
same,analgesic effect on acute pain,[2],completely blocked pain effects
same,activity relative to morphine,[5],equivalent to that of morphine
same,dose necessitated for a similar analgesic effect,[1],1 mg/kg
same,analgesic activity (pain reaction),[1]; 100 μg/kg intraperitoneal,complete disappearance of the pain reaction
CN1CC[C@]23c4c5ccc(O)c4O[C@H]2[C@@H](O)C=C[C@H]3[C@H]1C5 [morphine],minimum effective dose usually used as an initial analgesic dose,[6],1 mg
